# In patent publication US20260137807A1, “COMPOSITIONS AND METHODS FOR DELIVERING A MACROMOLECULE TO A CELL” (AstraZeneca AB, priority 2022, published 2026):
# How the values were obtained:
# Type in all cases: cell-based
# [1] = tested on: mCherry-GAL9 cells; test: mCherry-GAL9 assay in live cells for 4 hours, screening; details: 5 μM (FIG. 6-8)
# Experimental: (§1) Cells were subjected to a 10-point concentration dilution (0-15 μM) for 2 hours and then fixed and imaged (FIG. 3 and FIG. 4). Images were analyzed and curves were generated from both mCherry-GAL9 puncta quantitation and cell survival as determined by nuclear morphology (FIG. 5). The GAL9 recruitment response support the functional splice-switching data with SSOs, confirming the mCherry-GAL9 assay as a powerful tool for screening endosomolytic compounds and supporting the hypothesis that AZ2467 (Compound 6) and AZ4800 (Compound 2) promote SSO activity by inducing endosomal rupture. The GAL9 assay was again conducted, this time in live cells for 4 hours with select compounds for screening. Compounds were screened at 5 μM (FIG. 6-8) or 0.3125-10 μM (FIG. 35-38). FIG. 39 and FIG. 47 provide results for select compounds at various doses 0.3125-10 μM.
# [2] = tested on: HeLa mCherry-Gal9 cells; test: mCherry-GAL9 recruitment assay; details: for quantitation of Gal9 recruitment over time / window in concentration between induction of endosomal rupture and cytotoxicity: HeLa; for quantitation of Gal9 recruitment over time: FIG. 8; for relocalisation of Gal9 from cytosolic to punctate: 10-point dose titration, 2 hours, FIG. 3; for window in concentration between induction of endosomal rupture and cytotoxicity: FIG. 5
# From the text: (§2) All compounds were subjected to a mCherry-GAL9 recruitment assay. Under normal conditions, mCherry-GAL9 is homogenously dispersed in the cytosol. When an endosomal leakage event is detected, mCherry-GAL9 translocates to the damaged endosome (Du Rietz et al. (2020) Nat. Commun. 11:1809) The resulting localization pattern of discrete puncta can be visualized and quantitated.
# (§3) HeLa and Huh7 cell lines stably expressing mCherry-GAL9 were generated as described by (bioRxiv) (Munson, M. et al. (2021) Communications Biology, 4(211): 1-14) and seeded into 384-well CellCarrier Ultra plates (PerkinElmer: 6007558) at 3000 or 3500 cells/well respectively, 16 h before experimental usage.
# (§4) Dose-response curves of select compounds were generated using an Echo 655T acoustic dispenser (Labcyte) to dispense the indicated compounds into source plates (Greiner: 781280) containing growth media. At experimental start points, media containing appropriate compounds and doses was transferred to plates using a liquid handling robot (Agilent Bravo).
# (§5) At assay endpoints, cells were washed 2× PBS at RT and fixed in 4% PFA (VWR: 9713.1000) for 15 mins/RT. Cells were washed a further 3× PBS before the addition of PBS+1 μg/ml Hoechst 33342 (ThermoFisher Scientific: H21492) for a minimum of 1 h before imaging.
# (§6) Plates were imaged using a spinning-disk confocal microscope (Yokogawa: CV7000) with a 20× objective (NA 0.75). Images were processed utilizing Columbus image-analysis software (PerkinElmer: v2.9.0) to identify and quantify cells and mCherry-GAL9 structures. The resulting data were processed and normalized in Spotfire (Tibco: v10.3) and plotted in Prism (Graphpad: v8.0.1). Image panels were assembled using the FigureJ plugin for FIJI. (Mutterer and Zinck (2013) J. Microsc. 252(1):89-91).
# as §1
# [3] = tested on: Huh7 mCherry-Gal9 cells; test: mCherry-GAL9 recruitment assay; details: for quantitation of Gal9 recruitment over time: Huh7, FIG. 7; for relocalisation of Gal9 from cytosolic to punctate: 10-point dose titration, 2 hours, FIG. 4; for window in concentration between induction of endosomal rupture and cytotoxicity: Huh7, FIG. 5
# From the text: as §2, §3, §4, §5, §6, §1
# [4] = tested on: HeLa Luc705 cells; test: Splice switching activity assay (Luc705 luciferase reporter), Example 4A
# From the text: HeLa Luc705 and Huh7 Luc705 cells were used to screen and characterize the SMC generated in Example 2 for their ability to increase levels of an SSO-induced splice variant by co-treatment of the cells with the SSO and SMC. The Luc705 reporter construct was used for quantitation of luciferase protein produced as a result of functional SSO delivery. (Kang et al. (1998) Biochemistry, 37(18):6235-6239; Rocha et al. (2016) Four Novel Splice-Switch Reporter Cell Lines: Distinct Impact of Oligonucleotide Chemistry and Delivery Vector on Biological Activity. Nucleic Acid Ther. 26(6):381). Briefly, a plasmid carrying the luciferase coding sequence interrupted by an insertion of intron 2 from β-globin pre-mRNA carrying a cryptic splice site was stably transfected into cells. Unless the aberrant slice site was masked by an antisense oligonucleotide, the pre-mRNA of luciferase was improperly processed.
# HeLa Luc705 and Huh7 Luc705 cells were seeded in 96-well plates at 10,000 cells per well in growth media containing 1 μM Luc705-SSO and incubated to allow adherence and oligo internalization. After 24 hours, 10 μl of SMC diluted in Growth Media (DMEM+10% FBS) was added into each well. After 2 hours, media was removed from the wells and replaced with fresh growth media for 4 hours to allow for translation of the variant proteins. The media was then removed, and cells were lysed with 0.1% Triton-PBS.
# To detect luciferase activity, 30 μL of cell lysate was transferred to white-walled 96-well plates. Luciferase intensity in each well was measured using a GloMax® 96 Microplate Luminometer machine (Promega) following auto-injection of 25 μL Luciferin substrate (Firefly Luciferase Assay System: Promega) per well. Photon measurements were acquired for 10 seconds, starting 2 seconds after injection.
# To determine whether AZ4800 (Compound 2, FIG. 1B) and SSO must be present in the cell media simultaneously for Compound 2 to produce its synergistic effects, the treatment plan was modified from the UNC2383 treatment plan detailed by Wang et al. (2017) ACS Chem. Biol. 12(8):1999-2007 to include a 24 hour pre-treatment with SSO, followed by the addition of Compound 2 for two hours, followed by the removal of SSO and Compound 2, and finally a 4-hour protein translation period (FIG. 10).
# [5] = tested on: HeLa_Luc705 cells; test: Splice switching activity assay, 24 hr SMC treatment, Examples 4B/4D
# Experimental: (§7) HeLa_Luc705 cells were seeded in 96-well plates at 10,000 cells per well in growth media with 2 μM Luc705-SSO or 1 μM Luc705-SSO. The various SMCs were diluted directly into prepared growth media. After 24 hr to allow adherence and SSO internalization, 10 μl of diluted SMC was added into each well at indicated concentrations. For a positive control, SSOs were complexed with Lipofectamine 2000 for 30 min at RT and cells treated with a final concentration of 200 nM. ON concentrations above 200 nM would require LF2000 to be used in excess of the cells' toxicity threshold. After 24 hr treatment, cells were lysed with 0.1% TritonX-100 (Sigma Aldrich, cat no. X100) in 1× PBS (Gibco, cat no. 10010023).
# (§8) For the detection of luciferase activity, 30 μL of cell lysate was transferred to white-walled plates. The luciferase intensity in each well was immediately measured via luminometer following auto-injection of 25 μL Luciferin substrate as per the Promega Firefly Luciferase Assay System. The timing parameters of photon measurements were optimized for this procedure.
# as §7, with “The” for “HeLa_Luc705 cells were seeded in 96-well plates at 10,000 cells per well in growth media with 2 μM Luc705-SSO or 1 μM Luc705-SSO. The”
# [6] = tested on: N2A_Luc705 cells; test: Splice switching activity assay, 24 hr SMC treatment, Examples 4C/4D; details: compounds at 5 μM, 1 μM Luc 705 SSO, FIG. 25B
# Experimental: as §7, with “U2OS_Luc705 and N2A_Luc705” for “HeLa_Luc705”, “with” for “with 2 μM Luc705-SSO or”
# as §8
# as §7, with “The” for “HeLa_Luc705 cells were seeded in 96-well plates at 10,000 cells per well in growth media with 2 μM Luc705-SSO or 1 μM Luc705-SSO. The”
# [7] = tested on: U2OS_Luc705 cells; test: as above; details: compounds at 5 μM, 1 μM Luc 705 SSO, FIG. 25A
# Experimental: as §7, with “U2OS_Luc705 and N2A_Luc705” for “HeLa_Luc705”, “with” for “with 2 μM Luc705-SSO or”
# as §8
# as §7, with “The” for “HeLa_Luc705 cells were seeded in 96-well plates at 10,000 cells per well in growth media with 2 μM Luc705-SSO or 1 μM Luc705-SSO. The”
smiles,measurement,setting,value
COc1ccc2c(-c3nc(Nc4cn(C5CCNCC5)nc4OC)ncc3Cl)c[nH]c2c1 [Compound 5],"GAL9 recruitment, reason for selection for further characterization",[1],efficacy at shorter-term timepoints
same,quantitation of Gal9 recruitment over time,[2],time-dependent endosomal rupture
same,quantitation of Gal9 recruitment over time,[3],time-dependent endosomal rupture
CCOc1nn(C2CCNCC2)cc1Nc1ncc(Cl)c(-c2c[nH]c3ccccc23)n1 [Compound 6],"GAL9 recruitment, reason for selection for further characterization",[1],efficacy at shorter-term timepoints
same,relocalisation of Gal9 from cytosolic to punctate,[2],dose-dependent manner
same,window in concentration between induction of endosomal rupture and cytotoxicity,[2],narrow window
same,quantitation of Gal9 recruitment over time,[2],time-dependent endosomal rupture
same,relocalisation of Gal9 from cytosolic to punctate,[3],dose-dependent manner
same,window in concentration between induction of endosomal rupture and cytotoxicity,[3],narrow window
same,quantitation of Gal9 recruitment over time,[3],time-dependent endosomal rupture
same,increase in functional SSO activity,"[4]; 5 μM compound, 1 μM SSO or 100 nM SSO, FIG. 2B",increase in activity
same,increase in SSO activity,"[4]; up to 6 hours at 10 μM, FIG. 11B",200 fold
CCOc1nn(C2CCNCC2)cc1Nc1ncc(C(F)(F)F)c(-c2c[nH]c3ccccc23)n1 [Compound 7],increase in SSO activity,"[5]; 2 μM Luc 705 SSO, FIG. 26",induced an increase in SSO activity
same,increase in SSO activity,"[5]; 2 μM SSO, FIG. 23A",increase in SSO activity
COc1nn(C2CCN(C)CC2)cc1Nc1ncc(F)c(-n2ccc3c(C#N)cccc32)n1 [Compound 8],"GAL9 response, rank among exemplified compounds","[2]; doses 1.25-5 μM, 1, 2, 16 hours, FIG. 34",second most potent
same,dose from which GAL9+ remodelling is induced,[3]; FIG. 40,≥ 2.5 µM
same,"GAL9 response, rank among exemplified compounds","[3]; doses 1.25-5 μM, 1, 2, 16 hours, FIG. 33",second most potent
same,increase in SSO activity,"[5]; 2 μM Luc 705 SSO, FIG. 24",increase in SSO activity
same,increase in SSO activity,"[5]; 2 μM Luc 705 SSO, FIG. 26",induced an increase in SSO activity
same,increase in SSO activity relative to oligo only,[6],induced an increase in SSO activity relative to oligo only
same,increase in SSO activity relative to oligo only,[7],induced an increase in SSO activity relative to oligo only
COc1nn(C2CCNCC2)cc1Nc1ncc(C#N)c(-n2ccc3c(C(F)(F)F)cccc32)n1 [Compound 20],increase in SSO activity relative to oligo only,[7],induced an increase in SSO activity relative to oligo only
CCOc1nn(C2CCNCC2)cc1Nc1ncc(F)c(-n2ccc3c(C#N)cccc32)n1 [Compound 21],increase in SSO activity,"[5]; 2 μM Luc 705 SSO, FIG. 24",increase in SSO activity
same,increase in SSO activity,"[5]; 2 μM Luc 705 SSO, FIG. 26",induced an increase in SSO activity
same,increase in SSO activity relative to oligo only,[6],induced an increase in SSO activity relative to oligo only
same,increase in SSO activity relative to oligo only,[7],induced an increase in SSO activity relative to oligo only
COc1nn(C2CCNCC2)cc1Nc1ncc(F)c(-n2ccc3ccc(C#N)cc32)n1 [Compound 22],increase in SSO activity relative to oligo only,[6],induced an increase in SSO activity relative to oligo only
same,increase in SSO activity relative to oligo only,[7],induced an increase in SSO activity relative to oligo only
COc1nn(C2CCNCC2)cc1Nc1ncc(F)c(-c2c[nH]c3cccc(C)c23)n1 [Compound 25],increase in SSO activity relative to oligo only,[7],induced an increase in SSO activity relative to oligo only
"O=C(Nc1nc2ccccc2n1CCN1CCCC1)c1cc2cc(Cl)ccc2o1 [UNC2383, reference compound]",relocalisation of Gal9 from cytosolic to punctate,[2],dose-dependent manner
same,window in concentration between induction of endosomal rupture and cytotoxicity,[2],narrow window
same,relocalisation of Gal9 from cytosolic to punctate,[3],dose-dependent manner
same,window in concentration between induction of endosomal rupture and cytotoxicity,[3],narrow window
same,quantitation of Gal9 recruitment over time,[3],time-dependent endosomal rupture
